“Also recorded” adds a separate entry of the source.
Experiments:
[1] = tested on: LSEC fenestrations; test: Acute defenestration by a single intraperitoneal injection of P407; type: in vivo
From the text: Acute loss of fenestrations, in the absence of other ageing changes, causes dyslipidaemia and insulin resistance Ageing is a complex process leading to impairment of many cellular pathways. To test the hypothesis that age-related loss of fenestrations contributes to dyslipidaemia and insulin resistance, the inventors aimed to evaluate the impact of acute defenestration in the absence of other ageing changes. […] P407 administration caused a 10-fold increase in circulating lipoproteins, especially triglycerides and chylomicron remnants, while preventing the transfer of small chylomicrons across the LSEC.

[2] = tested on: LSEC fenestrations; test: SEM of LSEC fenestrations after drug treatments (Example 2, FIGS. 1-6); type: cell-based, mice; conditions: for change in fenestration porosity / change in fenestration frequency: Cytochalasin D 0.5 μg/ml, Amlodipine 20 ng/ml; for sieve plates and fenestration density on SEM images: young and old mice
From the text: Young and old C57B16 mice (n=3 young mice, age 3-4 and n=3 old mice, 20-24 months) were maintained under full SPF conditions and with ad libitum feeding. The study had the approval of the Sydney South West Area Health Service Animal Welfare Committee. Mice at 20-24 months are senescent. Animals were sacrificed withCO2 and livers immediately perfusion-fixed via a 23G needle inserted into the portal vein. Liver tissue was fixed with1% glutaraldehyde/4% para-formaldehyde in PBS (0.1M sucrose).
Drug treatments and dosages (shown superimposed on their corresponding image in FIGS. 1, and 2) were performed by incubating liver cells at 37° C., 5% CO2 for 30 mins using RPMI with or without dissolved drug. All images were taken by two blinded researchers using a SEM at 10,000×, scale bars of 1 μm are shown.
Each data point represents the average±SD of 8 images (as shown in FIGS. 1 and 2), 616-3312 fenestration raw data points were collected per treatment.

[3] = tested on: isolated LSECs (liver sinusoidal endothelial cells); test: SEM of fenestrations in isolated LSECs from young and old mice after 30 min drug treatment (second Example 7); type: cell-based; conditions: for Diameter / Frequency / Porosity: 30 min; for effect on porosity and fenestration frequency (summary in words): young and old LSECs
Protocol: 3-4 and 18-24 month old male C57/B16 mice were obtained from the Animal Resource Centre in Perth, Western Australia. Animals were housed at the ANZAC Research Institute animal house on a 12 hour light/dark cycle and provided with ad libitum access to food and water. Mice were not fasted prior to euthanasia by a single intraperitoneal injection with 100 mg/kg ketamine and 10 mg/kg xylazine in saline. The study was approved by the Animal Welfare Committee of the Sydney Local Health District and was performed in accordance with the Australian Code of Practice for the care and use of animals for scientific research (AWC 2016/009). All information provided accords with the ARRIVE guidelines.
As described previously (Cogger et al. J e52698, 2015 https://dx.doi.org/10.3791/52698), mouse LSEC isolation was performed by perfusion of the liver with collagenase. Non-parenchymal cells were removed by a two-step Percoll gradient and Kupffer cells were removed by selective adherence to plastic. LSECs (seeded at 0.5×10^6 cells/cm2) were cultured (37° C., 5% CO2) in serum free RPMI-1640 for 3.5 hours before use.
Cells were treated with various agents for 30 minutes to determine effects on fenestrations. All agents were dissolved in serum-free RPMI media. All experiments were performed in triplicate for both young and old mice. Actin was disrupted with 0.5 μg/ml cytochalasin D and lipid rafts were disrupted with 3.6 and 1.8 μg/ml 7-keocholesterol; dosages were selected. […] The serotonergic/phospholipase C pathway was promoted with DOI (0.1 μg/ml) and endothelin receptors were inhibited by bosentan (550, 55 and 5.5 ng/ml) Death receptor 4 was promoted with TRAIL (100, 10. 1, 0.1 and 0.01 ng/ml) and NAD+ was promoted with NMN (5000, 50, 10, 1 and 0.1 μg/ml).
SEM was performed as previous described (Corbin et al J Biol Chem 274: 13729-13732, 1999.). LSECs were fixed in 2.5% glutaraldehyde in 0.1M sodium cacodylate buffer, osmicated, dehydrated in graded ethanol and hexamethyl disilazane, mounted on stubs, sputter coated with platinum and examined using a JEOL 6380 Scanning Electron Microscope (JEOL Ltd, Japan). Images at 10,000× magnification were collected by a blinded observer and used to measure fenestration diameter and LSEC porosity using Image J (NIH, MD, USA). […] Fenestrations less than 30 nm and gaps more than 300 nm were excluded from analysis. Porosity was defined as the percentage of the cell membrane covered with fenestrations. Frequency was defined at the number of fenestrations per […].
Individual specifications of analyses are described in figures legends. All data are presented as mean±SD. Experimental design and analysis were performed in accordance with the APS guidelines described in Curran-Everett and Benos DJ. Adv Physiol Educ 31: 295-298, 2007.

[4] = tested on: fenestrations; conditions: young mice; cited from earlier work
[5] = tested on: actin cytoskeleton of LSECs; test: dSTORM imaging of the actin cytoskeleton; type: cell-based; conditions: young mice
Protocol: dSTORM imaging was performed using an in-house microscope. LSECs were prepared for dSTORM by washing twice with PBS and fixation with 4% paraformaldehyde for 30 mins. Then LSECs were washed twice with PBS, permeabilised with Triton-X for 90 secs, blocked with 5% bovine serum albumin for 1 hour, and stained with Alexa Flour phalloidin 488 (1:40) for 20 min prior to imaging. Cells were washed using PBS with 0.1% Tween and placed in OxEA buffer (30) for dSTORM visualisation and image capture. The dSTORM used 488 and 647 nm excitation from diode-pumped lasers (Coherent Inc, CA, USA). Excitation was delivered via a 1.49NA 60× oil-immersion TIRF objective (Olympus Australia, AUS). Fluorescence was captured on two separate sCMOS cameras (Imaging Development Systems GmbH, Germany). Data was collected for up to 40,000 images at around 75 fps. 5-8 whole cell images were collected by a blinded observer for each treatment dosage and processed using rapidSTORM open source software (Wolter et al. Nat Methods 9: 1040, 2012.). Each image was examined for all sieve plates and actin structures. Densitometry measurements were performed using 5-8 dSTORM images with data analysis performed using Image J software (NIH, MD, USA).

[6] = tested on: lipid rafts and fenestrations of LSECs; test: 3D-SIM study of lipid rafts and fenestrations; type: cell-based
From the text: Sieve plates containing fenestrations are intercalated between thickened areas of membrane (lipid rafts).

[7] = old mice, DOI 0.1 μg/ml, 7KC 9 μM
[8] = old mice, DOI 0.1 μg/ml, 7KC 9 μM, Bosentan 0.1 μM, Sildenafil 300 ng/ml
[9] = young mice, DOI 0.1 μg/ml, 7KC 9 μM

poloxamer 407 [P407]
increase in circulating lipoproteins ([1]; especially triglycerides and chylomicron remnants): 10 fold
passage of insulin across the LSEC ([1]; in vivo): prevented the passage of insulin across the LSEC
loss of fenestrations ([1]; within 24 hours of a single intraperitoneal injection): 30-80%

C=C1[C@@H](C)[C@H]2[C@H](Cc3ccccc3)NC(=O)[C@]23[C@H](OC(C)=O)/C=C/[C@@](C)(O)C(=O)[C@@H](C)C/C=C/[C@H]3[C@@H]1O [Cytochalasin D, cytochalasin D]
sieve plate grouping on SEM images ([2]; old mice): greater fenestration sieve plate grouping
change in fenestration porosity [2, 7]: increased porosity
change in fenestration frequency [2, 8]: increased
sieve plates and fenestration density on SEM images [2]: promoted increased fenestration density and maintained sieve plate fenestration clustering
change in fenestration frequency ([2]; young mice, Bosentan 0.1 μM, Sildenafil 300 ng/ml): increased
change in fenestration porosity [2, 9]: increased porosity
fenestrations in LSECs from old mice ([3]; old mice): increased fenestrations
Diameter ([3]; old mice, 0.5 μg/ml): 117.04 ± 9.26 nm
Frequency ([3]; old mice, 0.5 μg/ml): 3.39 ± 1.07 no/area
Porosity ([3]; old mice, 0.5 μg/ml): 3.82 ± 1.01%
effect on porosity and fenestration frequency (summary in words) [3]: significantly increased frequency but not porosity in young and old LSECs
Change in Porosity, Young ([3]; young mice, 0.5 μg/ml): ↑ (ns)
Diameter ([3]; young mice, 0.5 μg/ml): 126.78 ± 10.68 nm
Frequency ([3]; young mice, 0.5 μg/ml): 4.57 ± 0.51 no/area
Porosity ([3]; young mice, 0.5 μg/ml): 6.05 ± 0.62 %
increase in porosity ([3]; young mice, not significant (P=0.08)): 33%
fenestration porosity and diameter (previously reported) [4]: increase fenestration porosity in young mice without any significant effects on fenestration diameter
actin changes with drug treatments (dSTORM) [5]: Disordered actin structure; also recorded: Dense actin plasma membrane; also recorded: Stress fibres; also recorded: Single isolated fenestrations
actin changes with drug treatments (dSTORM) ([5]; listed as cytochalasin D): extensive actin staining of the plasma membrane; also recorded: loss of smooth fibres encircling the cytoplasm
effect on fenestrations and lipid rafts [6]: increased fenestrations and decreased rafts

CC(C)CCC[C@@H](C)[C@H]1CC[C@H]2[C@@H]3C(=O)C=C4C[C@@H](O)CC[C@]4(C)[C@H]3CC[C@]12C [7-ketocholesterol]
diameter of fenestrations observed on SEM images [2]: Increased diameter of fenestrations
change in fenestration diameter ([2]; old mice, 7KC 4.5 μM, Bosentan 0.1 μM, Sildenafil 300 ng/ml, TRAIL 1 μg/ml): Increased fenestration diameter
change in fenestration porosity [2, 7]: increased porosity
change in fenestration frequency [2, 8]: increased
sieve plates and fenestration density on SEM images [2]: promoted increased fenestrations but limited clearly definable sieve plates
change in fenestration porosity [2, 9]: increased porosity
gap formation [3]: Gap formation was apparent
increase in fenestration diameter [3]: 15 nm
fenestrations in LSECs from old mice ([3]; old mice): increased fenestrations
Diameter ([3]; old mice, 1.8 μg/ml): 154.41 ± 13.07 nm
Frequency ([3]; old mice, 1.8 μg/ml): 2.65 ± 0.94 no/area
Porosity ([3]; old mice, 1.8 μg/ml): 5.19 ± 0.95 %
Diameter ([3]; old mice, 3.6 μg/ml): 139.46 ± 17.45 nm
Frequency ([3]; old mice, 3.6 μg/ml): 3.15 ± 0.08 no/area
Porosity ([3]; old mice, 3.6 μg/ml): 5.34 ± 1.17 %
effect on porosity and fenestration frequency (summary in words) [3]: significant increases in porosity and fenestration frequency in both young and old LSECs
fenestration diameter ([3]; young and old mice, P<0.05): increased fenestration diameter in both young and old mice
Diameter ([3]; young mice, 1.8 μg/ml): 142.35 ± 8.02 nm
Frequency ([3]; young mice, 1.8 μg/ml): 3.59 ± 0.78 no/area
Porosity ([3]; young mice, 1.8 μg/ml): 6.10 ± 1.82%
Diameter ([3]; young mice, 3.6 μg/ml): 148.59 ± 7.70 nm
Frequency ([3]; young mice, 3.6 μg/ml): 4.36 ± 0.93 no/area
Porosity ([3]; young mice, 3.6 μg/ml): 8.03 ± 1.37 %
shift in frequency distribution of fenestration diameter ([3]; young mice, NMN 5000 μg/ml, 7-ketocholesterol 3.6 μg/ml): decreased 30-125 nm diameter fenestrations and an increase in 150-3000 sized fenestrations
fenestration porosity and diameter (previously reported) [4]: increase fenestration porosity in young mice without any significant effects on fenestration diameter
effect on fenestrations and lipid rafts [6]: increased fenestrations and decreased rafts

From patent US20210161894A1, “Compositions and Methods for Modulating Liver Endothelial Cell Fenestrations” (priority 2017, published 2021)
